Columns and labels:
[1] = tested on: Smad signaling pathway of TGFβRI; assay: Inhibition of Smad signaling pathway of TGFβRI (3TP-lux luciferase reporter in HepG2 cell); type: cell-based; conditions: Homo sapiens; HepG2 cell, 3TP-lux plasmid, 18 hours; read-out: IC50 on the inhibition of Smad signaling pathway of TGFβRI
[2] = target: recombinant human VEGFR2 enzyme (Homo sapiens (Human), UniProt P35968); assay: Inhibition of VEGFR2 kinase activity (Z'-LYTE Kinase Assay Kit); type: biochemical; conditions: ATP 50 μM; read-out: IC50 of inhibition effect on VEGFR2 kinase activity
Procedure: The inhibition effect of VEGFR2 kinase activity in vitro was determined by the following method.
The inhibition effect of the compounds of the present invention on VEGFR2 kinase activity was determined by the following experimental method:
After reaction at 25° C. for 2 hours, 5 μL of detection reagent was added to each well. […] The IC50 values of the compounds for enzyme inhibition were calculated using Graphpad prism software based on each concentration of the compound and the corresponding signal value thereof.

p38α kinase = p38α kinase (Homo sapiens (Human), UniProt Q16539); assay: Inhibition of p38α kinase activity (p38α kinase assay kit, ADP-Glo); type: biochemical; conditions: ATP 50 μM; read-out: IC50 of inhibition effect on p38α kinase activity
Procedure: The inhibition of p38α kinase activity in vitro was determined by the following method.
The inhibition effect of the compounds of the present invention on p38a kinase activity was determined by the following experimental method:
p38α kinase assay kit (V9591, Promega) was used to assay enzyme activity. 2 μl of enzyme solution (the final concentration of enzyme in the reaction system was 0.5 ng/μL) formulated with reaction buffer (40 mM Tris pH 7.5, 20 mM MgCl2, 0.1 mg/ml BSA), 1 μl of a 3-fold gradient dilution of the compounds dissolved in 5% DMSO, and 2 μl of a mixed solution of ATP and p38 substrate peptide (the final concentration of ATP was 50 μM, and the final concentration of substrate was 0.2 μg/μL) were added successively to a 384-well plate (4514, Corning). After reaction at 27° C. for 2.5 hours, 5 μl of ADP-Glo solution in the kit was added to each well, then the plate was placed at 27° C. for 40 minutes. 10 μl of kinase assay reagent was then added to each well, then the plate was placed at 27° C. for 30 minutes. The chemiluminescence signal values were measured with a Victor 3 (PerkinElmer) multi-function microplate reader. The IC50 values of the compounds on enzyme inhibition were calculated using Graphpad prism software based on each concentration of the compound and the corresponding signal value thereof.

TGFβRI kinase ALK5 = TGFβRI kinase ALK5 (Homo sapiens (Human), UniProt P36897); assay: Inhibition of TGFβRI kinase ALK5 activity (TGFβRI kinase assay kit, ADP-Glo); type: biochemical; conditions: ATP 50 μM; read-out: IC50 of inhibition effect on TGFβRI kinase ALK5 activity
In short: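 Kinase reaction: 2 ng/μL enzyme in Tris pH 7.5, MgCl2, BSA buffer with 50 μM ATP and 0.2 μg/μL substrate peptide, 2.5 h at 27 °C. ADP formation read by ADP-Glo luminescence over 3-fold compound dilutions; IC50 calculated from signal versus concentration.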

NIH3T3 cell = assay: Inhibition of NIH3T3 cell proliferation (CellTiter-Glo); type: cell-based; conditions: Mus musculus, 72 hours, 0.5% FBS
Procedure: The inhibition effect of the compounds of the present invention on NIH3T3 cell proliferation was determined by the following in vitro test.
The inhibition effect of the compounds of the present invention on NIH3T3 cell proliferation was determined by the following experimental method:
On a 96-well white plate with transparent bottom (3903, Corning), 100 μL of NIH3T3 cell (GNM6, Cell Bank of Typical Culture Collection Committee of Chinese Academy of Sciences) was seeded in a DMEM medium containing 10% FBS in each well. The seeding density is 2000 cells/well. The cells were incubated overnight at 37° C., 5% CO2. After overnight incubation, each well was replaced with 90 μL of DMEM medium containing 0.5% FBS. 10 μl of a 3-fold gradient dilution of the compounds with DMEM medium containing 0.5% FBS was then added, and the plate was incubated for 72 hours in a cell incubator at 37° C., 5% CO2. Finally, 50 μL of CellTiter-Glo (G7573, Promega) was added to each well. After incubation for 10 minutes at room temperature, the chemiluminescence signal values were measured with a Victor 3 microplate reader (PerkinElmer). The IC50 values of the compounds were calculated using Graphpad Prism software based on each concentration of the compound and the corresponding signal value thereof.

Sequence of p38α kinase (Q16539 whole entry): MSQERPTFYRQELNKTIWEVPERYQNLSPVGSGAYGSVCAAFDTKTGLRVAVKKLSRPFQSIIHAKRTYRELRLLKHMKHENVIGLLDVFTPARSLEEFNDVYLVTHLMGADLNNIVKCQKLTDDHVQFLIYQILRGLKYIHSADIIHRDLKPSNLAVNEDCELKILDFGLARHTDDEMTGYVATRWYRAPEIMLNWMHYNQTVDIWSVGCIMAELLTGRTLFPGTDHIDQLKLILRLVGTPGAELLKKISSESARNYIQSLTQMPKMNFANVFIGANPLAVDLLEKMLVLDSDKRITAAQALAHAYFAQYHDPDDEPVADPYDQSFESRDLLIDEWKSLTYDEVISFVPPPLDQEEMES
Sequence of recombinant human VEGFR2 enzyme (P35968 20-1356): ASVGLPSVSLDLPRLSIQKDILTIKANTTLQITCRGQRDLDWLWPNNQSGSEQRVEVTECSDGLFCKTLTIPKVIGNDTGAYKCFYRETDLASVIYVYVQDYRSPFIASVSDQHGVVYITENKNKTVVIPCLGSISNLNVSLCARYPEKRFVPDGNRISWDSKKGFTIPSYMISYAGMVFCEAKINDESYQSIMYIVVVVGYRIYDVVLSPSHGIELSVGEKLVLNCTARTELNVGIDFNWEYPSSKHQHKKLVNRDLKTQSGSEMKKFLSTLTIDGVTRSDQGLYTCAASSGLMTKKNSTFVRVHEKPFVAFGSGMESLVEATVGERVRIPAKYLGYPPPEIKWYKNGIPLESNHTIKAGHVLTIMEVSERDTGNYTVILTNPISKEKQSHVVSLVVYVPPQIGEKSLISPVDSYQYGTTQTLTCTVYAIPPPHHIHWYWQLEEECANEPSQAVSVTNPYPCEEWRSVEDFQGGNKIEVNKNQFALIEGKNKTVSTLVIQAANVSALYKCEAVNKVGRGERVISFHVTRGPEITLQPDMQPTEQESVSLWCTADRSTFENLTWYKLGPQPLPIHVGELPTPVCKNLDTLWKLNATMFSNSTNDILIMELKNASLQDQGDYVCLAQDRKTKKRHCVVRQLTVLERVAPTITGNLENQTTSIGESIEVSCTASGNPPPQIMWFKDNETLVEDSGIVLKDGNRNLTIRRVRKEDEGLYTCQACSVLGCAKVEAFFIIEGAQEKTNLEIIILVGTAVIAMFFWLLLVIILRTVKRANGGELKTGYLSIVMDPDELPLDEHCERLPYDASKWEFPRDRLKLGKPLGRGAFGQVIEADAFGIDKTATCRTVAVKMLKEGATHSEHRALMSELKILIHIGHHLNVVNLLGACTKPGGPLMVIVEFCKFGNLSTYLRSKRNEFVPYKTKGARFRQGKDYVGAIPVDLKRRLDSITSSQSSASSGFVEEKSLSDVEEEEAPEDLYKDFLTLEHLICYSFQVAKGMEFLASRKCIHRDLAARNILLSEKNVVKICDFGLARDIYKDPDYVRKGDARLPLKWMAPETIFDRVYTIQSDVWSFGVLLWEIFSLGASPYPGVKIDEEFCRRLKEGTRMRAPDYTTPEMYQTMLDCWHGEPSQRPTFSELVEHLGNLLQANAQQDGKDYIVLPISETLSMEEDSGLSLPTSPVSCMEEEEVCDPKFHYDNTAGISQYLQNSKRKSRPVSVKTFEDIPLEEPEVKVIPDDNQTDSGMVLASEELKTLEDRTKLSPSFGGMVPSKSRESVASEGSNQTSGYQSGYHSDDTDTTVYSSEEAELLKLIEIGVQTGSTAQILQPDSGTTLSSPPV
Sequence of TGFβRI kinase ALK5 (P36897 34-503): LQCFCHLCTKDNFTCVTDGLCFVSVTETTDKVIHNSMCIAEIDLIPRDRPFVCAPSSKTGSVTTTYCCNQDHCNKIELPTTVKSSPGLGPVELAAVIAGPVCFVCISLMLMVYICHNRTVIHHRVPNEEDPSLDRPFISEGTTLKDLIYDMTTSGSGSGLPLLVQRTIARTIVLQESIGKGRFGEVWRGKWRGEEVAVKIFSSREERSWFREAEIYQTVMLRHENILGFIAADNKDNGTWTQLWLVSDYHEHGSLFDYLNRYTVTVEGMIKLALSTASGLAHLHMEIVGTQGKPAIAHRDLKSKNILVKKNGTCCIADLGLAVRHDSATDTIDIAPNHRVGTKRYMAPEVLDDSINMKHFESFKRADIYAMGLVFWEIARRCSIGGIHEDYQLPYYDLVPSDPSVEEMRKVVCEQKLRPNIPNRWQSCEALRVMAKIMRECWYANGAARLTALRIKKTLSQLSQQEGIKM

IC50 [1] [nM]	IC50 [2] [nM]	IC50 (p38α kinase) [nM]	IC50 (TGFβRI kinase ALK5) [nM]	SMILES	IC50 (NIH3T3 cell) [nM]
86	4060	638	29	Cc1cccc(-c2nc3n(c2-c2ccnc(-c4ccc(C(N)=O)cc4)c2)C2CCC3C2)n1 (stereo not shown) [Example 4, 4-(4-(2-(6-Methylpyridin-2-yl)-5,6,7,8-tetrahydro-5,8-methanoimidazo[1,2-a]pyridin-3-yl)pyridin-2-yl)benzamide]	–
18	1010	598	21	Cc1cccc(-c2nn3c(c2-c2ccc4nccc(C(N)=O)c4c2)C2CCC3CC2)n1 [Example 36, 6-(2-(6-Methylpyridin-2-yl)-4,5,6,7-tetrahydro-4,7-ethanopyrazolo[1,5-a]pyridin-3-yl)quinoline-4-carboxamide]	–
18	2080	1360	10	Cn1cc(-c2cc(-c3c(-c4ccc(F)cn4)nc4n3[C@H]3CC[C@@H]4C3)ccn2)cn1 [Example 40-1, (5S,8R)-2-(5-Fluoropyridin-2-yl)-3-(2-(1-methyl-1H-pyrazol-4-yl)pyridin-4-yl)-5,6,7,8-tetrahydro-5,8-methanoimidazo[1,2-a]pyridine]	42

From patent publication US10906905B2, “Five-membered heteroaryl ring bridged ring derivative, preparation method therefor and medical use thereof” (Jiangsu Hengrui Medicine Co., Ltd., priority 2016, dated 2021)
